Assays:
Beta-secretase 1 [1] = biological target: T1, Beta-secretase 1 (Homo sapiens, UniProt P56817); test: Inhibition of BACE1 expressed in HEK cells by cell-based assay; set-up: species or system HEK293
Beta-secretase 1 [2] = biological target: T1, Beta-secretase 1; test: Inhibition of BACE1 by FRET assay

T1 sequence (P56817 whole entry): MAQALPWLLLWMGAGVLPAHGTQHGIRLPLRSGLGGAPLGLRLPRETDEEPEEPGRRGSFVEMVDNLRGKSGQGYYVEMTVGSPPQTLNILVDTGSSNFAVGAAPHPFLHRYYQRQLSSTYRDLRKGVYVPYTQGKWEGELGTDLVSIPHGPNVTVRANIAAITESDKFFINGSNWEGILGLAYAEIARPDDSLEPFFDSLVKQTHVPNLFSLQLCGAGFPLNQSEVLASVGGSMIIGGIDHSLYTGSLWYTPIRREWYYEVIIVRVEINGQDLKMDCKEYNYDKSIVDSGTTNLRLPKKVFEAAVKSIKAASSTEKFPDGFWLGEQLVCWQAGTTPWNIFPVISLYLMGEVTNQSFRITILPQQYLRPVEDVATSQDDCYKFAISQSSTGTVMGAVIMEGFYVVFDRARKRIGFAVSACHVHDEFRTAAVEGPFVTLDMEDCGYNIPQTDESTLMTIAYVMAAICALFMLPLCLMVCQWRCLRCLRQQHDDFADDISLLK

SMILES	IC50 (Beta-secretase 1 [1]) [nM]	IC50 (Beta-secretase 1 [2]) [nM]
NC1=N[C@@]2(COCC1)c1cc(-c3cccnc3F)ccc1Oc1cnc(-c3ccnc(F)c3)cc12	1	
CC(C)(C)COc1cc(F)c2c(c1)[C@]1(COCCC(N)=N1)c1cc(-c3cccnc3F)ccc1O2	7	
NC1=N[C@@]2(CCOC1)c1cc(-c3cccnc3F)ccc1Oc1cnc(-c3ccc(F)c(F)c3)cc12	19	2
NC1=N[C@@]2(CCOC1)c1cc(-c3cccnc3F)ccc1Oc1cnc(C3CCC(F)(F)C3)cc12 (stereo partly specified)	4	3
